Assay results as given in patent US20080009418A1, “Selective Inhibitors” (Alchemia LTD., priority 2004, published 2008).

Experiments:
Human μ-opioid (MOP) = biological target: T1, Human μ-opioid (MOP) (Homo sapiens, UniProt P35372); assay: Radioligand binding, human μ-opioid (MOP) membranes, FlashPlate, [3H]-Naloxone; settings: compound at 10 μM; for A7 radioligand binding inhibition: human μ-opioid (MOP) membranes
T1 construct: purchased Perkin Elmer Biosignal
Summary of the method: (§1)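 Cloned human receptor membranes were coated onto FlashPlate wells and incubated with radioligand and compound (added from a 0.5 mM DMSO daughter plate) for 1 hour at room temperature in the dark. Scintillation counting gave percent inhibition, with DMSO defining total and reference ligand defining non-specific binding.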

[1] = biological target: T2, Human melanin-concentrating hormone (MCH1) (Homo sapiens, UniProt Q99705); assay: Radioligand binding, human melanin-concentrating hormone MCH1 membranes, FlashPlate, [125I]-S36057; settings: compound at 10 μM; for A6 radioligand binding inhibition: human MCH1 membranes
T2 construct: purchased Perkin Elmer Biosignal
Summary of the method: as §1

Human Melanocortin (MC3) = biological target: T3, Human Melanocortin (MC3) (Homo sapiens, UniProt P41968); assay: Radioligand binding, human melanocortin MC3 membranes, FlashPlate, [125I]-NDP-αMSH; settings: compound at 10 μM; for A3 radioligand binding inhibition: human melanocortin MC3 membranes
T3 construct: purchased Perkin Elmer Biosignal
Summary of the method: as §1

Mouse urotensin (mUR2) = biological target: T4, Mouse urotensin (mUR2) (Mus musculus, UniProt Q8VIH9); assay: Radioligand binding, mouse urotensin mUR2 membranes, FlashPlate, [125I]-Urotensin II; settings: compound at 10 μM; for A11 radioligand binding inhibition: mouse urotensin mUR2 membranes
T4 construct: purchased Perkin Elmer Biosignal
T4 sequence (Q8VIH9 1-385): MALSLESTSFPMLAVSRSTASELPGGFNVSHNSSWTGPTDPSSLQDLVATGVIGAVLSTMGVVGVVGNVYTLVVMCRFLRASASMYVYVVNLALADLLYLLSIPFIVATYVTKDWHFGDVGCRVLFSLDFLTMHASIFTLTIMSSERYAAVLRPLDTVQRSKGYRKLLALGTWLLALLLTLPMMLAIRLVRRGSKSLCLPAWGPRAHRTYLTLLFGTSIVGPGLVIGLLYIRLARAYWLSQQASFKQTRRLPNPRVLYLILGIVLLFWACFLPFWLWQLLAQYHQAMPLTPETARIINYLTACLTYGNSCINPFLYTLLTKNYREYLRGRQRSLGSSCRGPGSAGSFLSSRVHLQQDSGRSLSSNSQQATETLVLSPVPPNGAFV
Summary of the method: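 Cloned mouse urotensin (mUR2) receptor membranes from Perkin Elmer Biosignal were immobilized in FlashPlate microplates using a proprietary coating. Each well got 19.5 μl buffer, then 0.5 μl of DMSO, reference ligand, or compound. Adding 5 μl of [125I]-Urotensin II, diluted to 5× final concentration in binding buffer, started binding. Plates were sealed with TopSeal-A and incubated 1 hour at room temperature in the dark. Wells were counted for 30 seconds each on a TopCount after a 60-second delay, and percentage inhibition was calculated.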

Human neurokinin (NK1) = biological target: T5, Human neurokinin (NK1) (Homo sapiens, UniProt P25103); assay: Radioligand binding, human neurokinin NK1 membranes, filtration, [125I]-Substance P; settings: compound at 10 μM; for A8 radioligand binding inhibition: human neurokinin NK1 membranes
T5 construct: purchased Perkin Elmer Biosignal
Summary of the method: (§2)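 Membranes from cloned human receptors were incubated with compound and radioligand for 1 hour at room temperature. Bound ligand was collected on 0.3% PEI-soaked filters, washed with cold 50 mM Tris-HCl pH 7.4, and counted by scintillation. Percent inhibition was computed against DMSO totals and reference-ligand nonspecific wells.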

Human δ-opioid (DOP) = biological target: T6, Human δ-opioid (DOP) (Homo sapiens, UniProt P41143); assay: Radioligand binding, human δ-opioid (DOP) membranes, FlashPlate, [3H]-Bremazocine; settings: compound at 10 μM; for A1 radioligand binding inhibition: human δ-opioid (DOP) membranes
T6 construct: purchased Perkin Elmer Biosignal
Summary of the method: as §1

Human κ-Opioid (KOP) = biological target: T7, Human κ-Opioid (KOP) (Homo sapiens, UniProt P41145); assay: Radioligand binding, human κ-opioid (KOP) membranes, filtration, [3H]-Diprenorphine; settings: compound at 10 μM; for A2 radioligand binding inhibition: human κ-opioid (KOP) membranes
T7 construct: purchased Perkin Elmer Biosignal
Summary of the method: as §2

Human melanocortin (MC5) = biological target: T8, Human melanocortin (MC5) (Homo sapiens, UniProt P33032); assay: Radioligand binding, human melanocortin MC5 membranes, FlashPlate, [125I]-NDP-αMSH; settings: compound at 10 μM; for A5 radioligand binding inhibition: human melanocortin MC5 membranes
T8 construct: purchased Perkin Elmer Biosignal
Summary of the method: as §1

[2] = biological target: T9, Human neuropeptide Y (NPY-Y1) (Homo sapiens, UniProt P25929); assay: Radioligand binding, human neuropeptide Y NPY-Y1 membranes, FlashPlate, [125I]-PYY; settings: compound at 10 μM; for A9 radioligand binding inhibition: human NPY-Y1 membranes
T9 construct: purchased Perkin Elmer Biosignal
T9 sequence (P25929 1-384): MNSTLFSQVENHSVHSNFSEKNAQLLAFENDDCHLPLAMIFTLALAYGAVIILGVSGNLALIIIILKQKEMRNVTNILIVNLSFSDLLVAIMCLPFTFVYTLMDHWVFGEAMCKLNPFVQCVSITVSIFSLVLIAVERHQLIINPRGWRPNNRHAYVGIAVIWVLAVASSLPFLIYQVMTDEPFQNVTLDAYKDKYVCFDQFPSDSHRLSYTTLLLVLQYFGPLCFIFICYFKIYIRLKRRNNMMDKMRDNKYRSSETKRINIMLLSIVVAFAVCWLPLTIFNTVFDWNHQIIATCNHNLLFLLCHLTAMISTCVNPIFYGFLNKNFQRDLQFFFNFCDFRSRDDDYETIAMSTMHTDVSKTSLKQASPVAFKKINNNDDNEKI
Summary of the method: as §1

Human Melanocortin (MC4) = biological target: T10, Human Melanocortin (MC4) (Homo sapiens, UniProt P32245); assay: Radioligand binding, human melanocortin MC4 membranes, FlashPlate, [125I]-NDP-αMSH; settings: compound at 10 μM; for A4 radioligand binding inhibition: human melanocortin MC4 membranes
T10 construct: purchased Perkin Elmer Biosignal
Summary of the method: as §1

Human opioid (ORL1) = biological target: T11, Human opioid (ORL1) (Homo sapiens, UniProt P41146); assay: Radioligand binding, human opioid ORL1 membranes, FlashPlate, [125I]-Nociceptin; settings: compound at 10 μM; for A10 radioligand binding inhibition: human ORL1 membranes
T11 construct: purchased Perkin Elmer Biosignal
Summary of the method: as §1

T8 sequence (P33032 whole entry): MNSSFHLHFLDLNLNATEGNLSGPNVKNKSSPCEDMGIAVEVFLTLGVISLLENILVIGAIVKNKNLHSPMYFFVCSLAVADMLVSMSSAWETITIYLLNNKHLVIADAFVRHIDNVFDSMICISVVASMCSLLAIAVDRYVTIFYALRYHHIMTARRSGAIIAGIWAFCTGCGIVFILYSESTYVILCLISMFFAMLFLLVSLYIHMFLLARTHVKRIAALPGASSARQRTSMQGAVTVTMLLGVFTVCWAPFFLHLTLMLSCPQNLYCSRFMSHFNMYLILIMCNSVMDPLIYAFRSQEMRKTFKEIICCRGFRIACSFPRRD
T1 sequence (P35372 whole entry): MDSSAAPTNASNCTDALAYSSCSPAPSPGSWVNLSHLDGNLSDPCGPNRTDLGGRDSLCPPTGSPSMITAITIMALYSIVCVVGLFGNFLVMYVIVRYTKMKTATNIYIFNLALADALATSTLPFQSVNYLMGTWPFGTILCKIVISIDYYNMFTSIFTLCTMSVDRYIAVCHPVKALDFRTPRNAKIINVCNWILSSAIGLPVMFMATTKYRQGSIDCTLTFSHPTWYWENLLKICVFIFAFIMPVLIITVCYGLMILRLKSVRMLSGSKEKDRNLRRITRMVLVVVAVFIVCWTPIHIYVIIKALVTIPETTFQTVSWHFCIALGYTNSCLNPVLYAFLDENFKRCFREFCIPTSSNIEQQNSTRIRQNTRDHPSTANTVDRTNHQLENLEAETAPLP
T10 sequence (P32245 whole entry): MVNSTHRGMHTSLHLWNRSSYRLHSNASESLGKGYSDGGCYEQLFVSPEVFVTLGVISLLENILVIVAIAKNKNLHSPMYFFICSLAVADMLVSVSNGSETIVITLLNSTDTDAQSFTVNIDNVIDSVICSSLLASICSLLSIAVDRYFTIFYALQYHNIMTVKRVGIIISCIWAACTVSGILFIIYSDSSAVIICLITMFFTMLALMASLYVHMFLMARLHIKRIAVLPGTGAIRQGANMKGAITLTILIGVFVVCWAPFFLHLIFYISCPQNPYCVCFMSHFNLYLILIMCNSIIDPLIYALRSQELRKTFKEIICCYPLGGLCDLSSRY
T6 sequence (P41143 whole entry): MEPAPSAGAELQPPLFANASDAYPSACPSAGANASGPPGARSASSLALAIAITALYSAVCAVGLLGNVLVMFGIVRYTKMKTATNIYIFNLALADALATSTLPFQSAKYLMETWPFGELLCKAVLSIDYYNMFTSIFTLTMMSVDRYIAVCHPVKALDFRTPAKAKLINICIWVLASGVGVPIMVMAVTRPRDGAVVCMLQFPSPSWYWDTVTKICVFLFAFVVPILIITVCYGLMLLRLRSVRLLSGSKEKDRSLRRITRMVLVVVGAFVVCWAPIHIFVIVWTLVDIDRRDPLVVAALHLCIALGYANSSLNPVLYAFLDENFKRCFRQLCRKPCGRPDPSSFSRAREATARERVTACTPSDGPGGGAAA
T5 sequence (P25103 whole entry): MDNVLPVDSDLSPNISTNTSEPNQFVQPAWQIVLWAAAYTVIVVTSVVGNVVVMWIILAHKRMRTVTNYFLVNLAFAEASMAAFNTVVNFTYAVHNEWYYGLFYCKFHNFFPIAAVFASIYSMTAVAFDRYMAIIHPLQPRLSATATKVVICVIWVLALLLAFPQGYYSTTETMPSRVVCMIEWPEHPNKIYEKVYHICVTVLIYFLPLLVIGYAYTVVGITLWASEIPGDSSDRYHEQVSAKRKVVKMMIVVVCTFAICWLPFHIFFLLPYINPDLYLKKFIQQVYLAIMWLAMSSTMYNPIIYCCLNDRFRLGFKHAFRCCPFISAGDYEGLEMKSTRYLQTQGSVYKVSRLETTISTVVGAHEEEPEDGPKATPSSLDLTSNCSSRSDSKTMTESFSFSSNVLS
T11 sequence (P41146 whole entry): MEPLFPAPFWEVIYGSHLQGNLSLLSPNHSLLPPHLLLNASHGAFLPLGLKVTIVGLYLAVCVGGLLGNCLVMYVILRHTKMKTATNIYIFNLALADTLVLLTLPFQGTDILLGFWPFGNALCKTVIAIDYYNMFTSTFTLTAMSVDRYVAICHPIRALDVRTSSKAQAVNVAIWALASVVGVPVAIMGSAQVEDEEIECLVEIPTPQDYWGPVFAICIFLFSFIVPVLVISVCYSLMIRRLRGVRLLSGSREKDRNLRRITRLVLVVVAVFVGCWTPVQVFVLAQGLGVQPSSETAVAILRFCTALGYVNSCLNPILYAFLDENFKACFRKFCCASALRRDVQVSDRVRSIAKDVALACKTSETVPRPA
T7 sequence (P41145 whole entry): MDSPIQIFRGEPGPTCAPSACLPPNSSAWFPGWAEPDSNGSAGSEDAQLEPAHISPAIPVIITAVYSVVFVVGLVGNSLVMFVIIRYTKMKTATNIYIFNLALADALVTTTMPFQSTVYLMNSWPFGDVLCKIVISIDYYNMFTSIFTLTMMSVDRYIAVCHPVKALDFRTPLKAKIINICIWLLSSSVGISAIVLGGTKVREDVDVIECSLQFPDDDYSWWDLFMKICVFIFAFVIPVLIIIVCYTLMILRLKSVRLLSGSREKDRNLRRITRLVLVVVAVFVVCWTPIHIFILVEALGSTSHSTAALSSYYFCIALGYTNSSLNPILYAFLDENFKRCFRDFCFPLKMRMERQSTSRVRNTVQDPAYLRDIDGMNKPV
T2 sequence (Q99705 whole entry): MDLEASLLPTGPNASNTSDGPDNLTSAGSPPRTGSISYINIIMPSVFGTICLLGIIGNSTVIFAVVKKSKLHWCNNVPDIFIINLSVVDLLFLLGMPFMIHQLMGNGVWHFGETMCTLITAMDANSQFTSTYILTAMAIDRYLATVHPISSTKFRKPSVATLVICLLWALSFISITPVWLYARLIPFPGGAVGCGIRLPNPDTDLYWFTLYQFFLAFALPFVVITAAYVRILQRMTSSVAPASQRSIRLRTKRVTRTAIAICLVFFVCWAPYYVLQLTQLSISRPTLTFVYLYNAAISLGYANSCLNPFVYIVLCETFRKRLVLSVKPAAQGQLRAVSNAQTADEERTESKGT
T3 sequence (P41968 whole entry): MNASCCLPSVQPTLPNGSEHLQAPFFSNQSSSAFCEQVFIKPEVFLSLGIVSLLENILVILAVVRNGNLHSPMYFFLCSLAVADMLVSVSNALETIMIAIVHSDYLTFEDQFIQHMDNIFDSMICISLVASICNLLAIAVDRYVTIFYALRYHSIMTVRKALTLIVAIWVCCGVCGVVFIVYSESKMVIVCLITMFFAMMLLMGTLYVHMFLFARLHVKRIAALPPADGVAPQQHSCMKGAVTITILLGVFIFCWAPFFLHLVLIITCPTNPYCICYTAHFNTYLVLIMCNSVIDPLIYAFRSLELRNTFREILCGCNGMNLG

SMILES	A7 radioligand binding inhibition (Human μ-opioid (MOP))	A6 radioligand binding inhibition [1]	A3 radioligand binding inhibition (Human Melanocortin (MC3))	A11 radioligand binding inhibition (Mouse urotensin (mUR2))	A8 radioligand binding inhibition (Human neurokinin (NK1))	A1 radioligand binding inhibition (Human δ-opioid (DOP))	A2 radioligand binding inhibition (Human κ-Opioid (KOP))	A5 radioligand binding inhibition (Human melanocortin (MC5))	A9 radioligand binding inhibition [2]	A4 radioligand binding inhibition (Human Melanocortin (MC4))	A10 radioligand binding inhibition (Human opioid (ORL1))	other results
COC[C@H]1OC(OCc2ccccc2)[C@H](NC(=O)CNC(=N)N)[C@@H](OCc2ccc(Cl)cc2)[C@@H]1O (stereo partly drawn) [compound 27]	− (“−” indicates less than 50% inhibition at 10 μM)	− (“−” indicates less than 50% inhibition at 10 μM)	− (“−” indicates less than 50% inhibition at 10 μM)	− (“−” indicates less than 50% inhibition at 10 μM)	− (“−” indicates less than 50% inhibition at 10 μM)	− (“−” indicates less than 50% inhibition at 10 μM)	− (“−” indicates less than 50% inhibition at 10 μM)	+ (“+” indicates greater than 50% inhibition at 10 μM)	− (“−” indicates less than 50% inhibition at 10 μM)	− (“−” indicates less than 50% inhibition at 10 μM)	− (“−” indicates less than 50% inhibition at 10 μM)	
CO[C@H]1[C@H](O)[C@@H](COCc2ccc(Cl)cc2)OC(OCc2ccc(-c3ccccc3)cc2)[C@@H]1NC(=O)CCNC(=N)N (stereo partly drawn) [compound 63]	+ (“+” indicates greater than 50% inhibition at 10 μM)	+ (“+” indicates greater than 50% inhibition at 10 μM)	+ (“+” indicates greater than 50% inhibition at 10 μM)	− (“−” indicates less than 50% inhibition at 10 μM)	+ (“+” indicates greater than 50% inhibition at 10 μM)	− (“−” indicates less than 50% inhibition at 10 μM)	+ (“+” indicates greater than 50% inhibition at 10 μM)	+ (“+” indicates greater than 50% inhibition at 10 μM)	+ (“+” indicates greater than 50% inhibition at 10 μM)	+ (“+” indicates greater than 50% inhibition at 10 μM)	+ (“+” indicates greater than 50% inhibition at 10 μM)	
NCCC(=O)NC1C(OCc2ccccc2)OC(COCc2ccc3ccccc3c2)C(O)C1OCc1ccccc1 (stereo not drawn) [compound 369]												A7: inhibition of radioligand binding, human μ-opioid (MOP) (Human μ-opioid (MOP); [3H]-Naloxone): − (“−” indicates less than 50% inhibition at 10 μM); A6: inhibition of radioligand binding, human melanin-concentrating hormone (MCH1) ([1]; [125I]-S36057): − (“−” indicates less than 50% inhibition at 10 μM); A3: inhibition of radioligand binding, human melanocortin (MC3) (Human Melanocortin (MC3); [125I]-NDP-αMSH): − (“−” indicates less than 50% inhibition at 10 μM); A11: inhibition of radioligand binding, mouse urotensin (mUR2) (Mouse urotensin (mUR2); [125I]-Urotensin II): − (“−” indicates less than 50% inhibition at 10 μM); A8: inhibition of radioligand binding, human neurokinin (NK1) (Human neurokinin (NK1); [125I]-Substance P): + (“+” indicates greater than 50% inhibition at 10 μM); A1: inhibition of radioligand binding, human δ-opioid (DOP) (Human δ-opioid (DOP); [3H]-Bremazocine): − (“−” indicates less than 50% inhibition at 10 μM); A2: inhibition of radioligand binding, human κ-opioid (KOP) (Human κ-Opioid (KOP); [3H]-Diprenorphine): − (“−” indicates less than 50% inhibition at 10 μM); A5: inhibition of radioligand binding, human melanocortin (MC5) (Human melanocortin (MC5); [125I]-NDP-αMSH): − (“−” indicates less than 50% inhibition at 10 μM); A9: inhibition of radioligand binding, human neuropeptide Y (NPY-Y1) ([2]; [125I]-PYY): − (“−” indicates less than 50% inhibition at 10 μM); A4: inhibition of radioligand binding, human melanocortin (MC4) (Human Melanocortin (MC4); [125I]-NDP-αMSH): + (“+” indicates greater than 50% inhibition at 10 μM); A10: inhibition of radioligand binding, human opioid (ORL1) (Human opioid (ORL1); [125I]-Nociceptin): − (“−” indicates less than 50% inhibition at 10 μM)
CO[C@H]1[C@H](O)[C@@H](COCc2cccc(O)c2)OC(OCc2ccc(-c3ccccc3)cc2)[C@@H]1NC(=O)CNC(=N)N (stereo partly drawn) [compound 146]												A7 radioligand binding, percentage inhibition (Human μ-opioid (MOP); [3H]-Naloxone): − (“−” indicates less than 50% inhibition at 10 μM); A6 radioligand binding, percentage inhibition ([1]; [125I]-S36057): − (“−” indicates less than 50% inhibition at 10 μM); A3 radioligand binding, percentage inhibition (Human Melanocortin (MC3); [125I]-NDP-αMSH): − (“−” indicates less than 50% inhibition at 10 μM); A11 radioligand binding, percentage inhibition (Mouse urotensin (mUR2); [125I]-Urotensin II): − (“−” indicates less than 50% inhibition at 10 μM); A8 radioligand binding, percentage inhibition (Human neurokinin (NK1); [125I]-Substance P): + (“+” indicates greater than 50% inhibition at 10 μM); A1 radioligand binding, percentage inhibition (Human δ-opioid (DOP); [3H]-Bremazocine): − (“−” indicates less than 50% inhibition at 10 μM); A2 radioligand binding, percentage inhibition (Human κ-Opioid (KOP); [3H]-Diprenorphine): + (“+” indicates greater than 50% inhibition at 10 μM); A5 radioligand binding, percentage inhibition (Human melanocortin (MC5); [125I]-NDP-αMSH): + (“+” indicates greater than 50% inhibition at 10 μM); A9 radioligand binding, percentage inhibition ([2]; [125I]-PYY): − (“−” indicates less than 50% inhibition at 10 μM); A4 radioligand binding, percentage inhibition (Human Melanocortin (MC4); [125I]-NDP-αMSH): − (“−” indicates less than 50% inhibition at 10 μM); A10 radioligand binding, percentage inhibition (Human opioid (ORL1); [125I]-Nociceptin): − (“−” indicates less than 50% inhibition at 10 μM)
CO[C@H]1[C@H](O)[C@@H](COCc2ccc(-c3ccccc3)cc2)OC(OCc2ccc(-c3ccccc3)cc2)[C@@H]1NC(=O)CCNC(=N)N (stereo partly drawn) [compound 52]	+ (“+” indicates greater than 50% inhibition at 10 μM)	+ (“+” indicates greater than 50% inhibition at 10 μM)	+ (“+” indicates greater than 50% inhibition at 10 μM)	− (“−” indicates less than 50% inhibition at 10 μM)	+ (“+” indicates greater than 50% inhibition at 10 μM)	− (“−” indicates less than 50% inhibition at 10 μM)	− (“−” indicates less than 50% inhibition at 10 μM)	+ (“+” indicates greater than 50% inhibition at 10 μM)	− (“−” indicates less than 50% inhibition at 10 μM)	+ (“+” indicates greater than 50% inhibition at 10 μM)	+ (“+” indicates greater than 50% inhibition at 10 μM)	
COC[C@H]1OC(OCc2ccc(-c3ccccc3)cc2)[C@H](NC(=O)CCCNC(=N)N)[C@@H](OCc2ccc(Cl)cc2)[C@@H]1O (stereo partly drawn) [compound 13]	+ (“+” indicates greater than 50% inhibition at 10 μM)	+ (“+” indicates greater than 50% inhibition at 10 μM)	− (“−” indicates less than 50% inhibition at 10 μM)	− (“−” indicates less than 50% inhibition at 10 μM)	+ (“+” indicates greater than 50% inhibition at 10 μM)	− (“−” indicates less than 50% inhibition at 10 μM)	− (“−” indicates less than 50% inhibition at 10 μM)	+ (“+” indicates greater than 50% inhibition at 10 μM)	− (“−” indicates less than 50% inhibition at 10 μM)	− (“−” indicates less than 50% inhibition at 10 μM)	− (“−” indicates less than 50% inhibition at 10 μM)	
